Patent US6762193B1, “Method of treating hair loss” (priority 2000, dated 2004)

Columns and labels:
Type in all cases: in vivo, human
[1] = tested on: dihydrotestosterone; assay: Serum dihydrotestosterone level in patients treated with zafirlukast
Method: (§1) During the summer of 2000 an investigative study was initiated to determine the efficacy of zafirlukast in the treatment of androgenetic alopecia A middle aged blond haired person whom was actively undergoing genetically influenced alopecia was recruited and voluntarily enlisted into the study under informed consent. […] Just two months earlier serum luteinizing hormone, total testosterone, androstenedione and dehydroepiandrosterone sulfate levels were determined to be normal. Having considered that dihydrotestosterone levels may have been suppressed to a low normal range, as pre treatment dihydrotestosterone serum determination had not been performed, the dose of zafirlukast was increased to 40 mg taken by mouth twice daily. Continuing this dose for a one month period of time, serum dihydrotestosterone levels were reanalized and determined to be 21 NG/DL (normal 25 to 75 NG/DL). […] The patient was then withdrawn, from zafirlukast therapy and there were no specific complications or side effects during a one month abstinence from zafirlukast and serum dihydrotestosterone levels were redetermined and found to be 15 NG/DL (normal 25 to 75 NG/DL). This patient was then given the option to continue treatment with zafirlukast at a dose of 40 mg taken by mouth twice daily for the treatment of androgenic alopecia and decided to do so as they had witnessed the continued regrowth of hair and remission of hair loss while taking zafirlukast. […] The results are as follows:
In person one undergoing treatment for Grade IV cystic acne vulgaris with zafirlukast at 40 mg po bid (by mouth twice a day) for 4 weeks, preceded by 2 weeks of zafirlukast treatment at 30 mg bid, their serum dihydrotestosterone level was determined to be 16 NG/DL (normal was 25 to 75 NG/DL).
(§2) In person two undergoing treatment with zafirlukast at 40 mg po bid for hereditary balding, their pretreatment dihydrotestosterone level was 5 NG/DL (normal 5 to 30 NG/DL); after 4 weeks of continuous treatment their dihydrotestosterone serum concentration was 4 NG/DL (normal 5 to 30 NG/DL) and at 6 weeks of continued treatment their serum dihydrotestosterone level was determined to be less than 3 NG/DL.

[2] = tested on: androgenetic alopecia; assay: Investigative study of zafirlukast in androgenetic alopecia / hereditary balding (hair loss and regrowth)
Method: as §1, §2

[3] = Serum ancillary hormone and liver function studies during zafirlukast treatment
Method: During the summer of 2000 an investigative study was initiated to determine the efficacy of zafirlukast in the treatment of androgenetic alopecia A middle aged blond haired person whom was actively undergoing genetically influenced alopecia was recruited and voluntarily enlisted into the study under informed consent. […] Just two months earlier serum luteinizing hormone, total testosterone, androstenedione and dehydroepiandrosterone sulfate levels were determined to be normal. Having considered that dihydrotestosterone levels may have been suppressed to a low normal range, as pre treatment dihydrotestosterone serum determination had not been performed, the dose of zafirlukast was increased to 40 mg taken by mouth twice daily. Continuing this dose for a one month period of time, serum dihydrotestosterone levels were reanalized and determined to be 21 NG/DL (normal 25 to 75 NG/DL). […] The patient was then withdrawn, from zafirlukast therapy and there were no specific complications or side effects during a one month abstinence from zafirlukast and serum dihydrotestosterone levels were redetermined and found to be 15 NG/DL (normal 25 to 75 NG/DL). This patient was then given the option to continue treatment with zafirlukast at a dose of 40 mg taken by mouth twice daily for the treatment of androgenic alopecia and decided to do so as they had witnessed the continued regrowth of hair and remission of hair loss while taking zafirlukast. […]
In this study a dose and time dependent effect has been identified with the treatment of both acne vulgaris and common baldness in genetically susceptible men and women without physical or psychological compromise, or forfeit of quality of life. […] Serum liver function studies monitored during this study remained in the normal range of value except in one patient with known Hepatitis C and abnormal pretreatment liver function studies; however, in all patients including the one patient with Hepatitis C, serum liver function studies improved with zafirlukast treatment possibly indicating a role in treating liver diseases in the future.

[4] = tested on: Grade IV cystic acne vulgaris; assay: Zafirlukast treatment of a patient with Grade IV cystic acne vulgaris; settings: person one, 40 mg po bid
[5] = tested on: acne vulgaris/acne rosacea; assay: Inception cohort investigational study of zafirlukast in acne vulgaris/acne rosacea patients
Source text: This study was designed to evaluate the effectiveness in treating acne vulgaris with the drug zafirlukast After having established a mechanism by which zafirlukast would be effective in the treatment of acne vulgaris, and subsequently treating a single case of acne conglobata successfully during the summer and fall of 1999, this study was purposely designed to evaluate the treatment of acne vulgaris with the drug zafirlukast
Objective: To determine if the anti-leukotriene zafirlukast is effective in the treatment of acne vulgaris/acne rosacea.
Design: Inception cohort investigational study conducted from October 1999 to January 2000.
Setting: Rural Family Practice clinic in Waldheim, La.
Participants: A total of 7 male and 8 female patients aged 12-45 years diagnosed with mild, moderate, or severe acne vulgaris including one case of acne conglobata and 2 cases of acne rosacea were given 20 mg. of zafirlukast (ACCOLATE® brand from AstraZeneca) twice daily from week 1 through week 4. The dose was increased to 30 mg. twice daily at week 4 and continued through week 8. At week 8 the dose of zafirlukast was decreased to 20 mg twice daily and continued until the termination of the study at 10 weeks.
Between the months of October and November 1999 both adolescent and adult patients were recruited consecutively at a family practice clinic in rural Louisiana to participate in an investigational study to determine the effectiveness of zafirlukast in the treatment of acne vulgarism Those patients who provided informed consent and who have reported a prior medical diagnosis of acne vulgaris were enlisted into the study. This cohort was composed of a total of seven male and eight female Caucasian patients, age twelve to forty five years, diagnosed with mild, moderate or severe acne vulgaris.
Pre-study recruitment assessment data was consistent with the following: one of fifteen patients was diagnosed with acne conglobata; two of fifteen patients were […] with acne rosacea, one of which had acne scars who had previously been treated with oral isotretinoin for nodular-cystic acne; eleven of fifteen patients with moderate to severe inflammatory/nodular-cystic acne; all patients had self medicated with topical comedolytic over-the-counter agents; three of fifteen patients had never been treated with prescription (topical or systemic) medications; twelve of fifteen patients were prescribed a range of three to five medical prescriptions (both topical and systemic) with varying degrees of success and failure; three of fifteen patients had previously taken oral isotretinoin; two of fifteen patients had been offered oral isotretinoin but refused that treatment.
Inclusion criteria for study enlistment encompassed any patient who was requesting medical treatment of a chief complaint of acne dermatitis, coincident with a clinical diagnosis of acne vulgaris confirmed by physical examination. These patients voluntarily agreed to be treated with zafirlukast knowing that alternative treatment (both topical and systemic) were available. At the initial visit all patients were instructed on the use of zafirlukast This was to be administered by mouth twice daily. The potential side effects, potential adverse reactions, and other risks were all explained. Patients all agreed to avoid any over-the-counter acne preparations and were to use any household soft-soap product to wash the facial skin twice daily. Zafirlukast was to be administered at the dose of 20 mg. twice daily from week one through week four and then to be increased to 30 mg. twice daily at week four and continued through week eight. At week eight the dose of zafirlukast was to be decreased to 20 mg. taken twice daily and continued until the completion of the study at ten weeks.
Main Outcome Measures: Subjective and objective medical examination and qualitative photographic analysis were employed at each patients initial visit to establish baseline. […]

COc1cc(C(=O)NS(=O)(=O)c2ccccc2C)ccc1Cc1cn(C)c2ccc(NC(=O)OC3CCCC3)cc12 [zafirlukast]
serum dihydrotestosterone level ([1]; person one, 40 mg po bid for 4 weeks preceded by 2 weeks at 30 mg bid, normal 25 to 75): 16 ng/dL | dihydrotestosterone serum concentration ([1]; person two, 40 mg po bid, after 4 weeks, pretreatment 5, normal 5 to 30): 4 ng/dL | serum dihydrotestosterone level ([1]; person two, 40 mg po bid, at 6 weeks): less than 3 NG/DL | serum dihydrotestosterone level ([1]; person, 20 mg twice daily, completion of fourth month, normal 25 to 75): 32 ng/dL | serum dihydrotestosterone level ([1]; person, 40 mg twice daily for one month, normal 25 to 75): 21 ng/dL | serum dihydrotestosterone level ([1]; person, after one month abstinence from zafirlukast, normal 25 to 75): 15 ng/dL | side effects or adversities ([2]; person one (acne) and person two (balding), 40 mg po bid): never witnessing any side effects or adversities | regrowth of frontal hair ([2]; person two, 40 mg po bid): regrowth of frontal hair | regrowth of hair ([2]; person, 20 mg twice daily, by the fourth month): regrowth of hair in the area of temporat and vertex balding was observed | occurrence of hair loss ([2]; person, 20 mg twice daily, within the first 6 weeks): less occurrence of hair loss | side effects ([2]; person, 20-40 mg twice daily): never any side effects observed | serum liver function studies ([3]; all patients including one with Hepatitis C): improved | serum luteinizing hormone, total testosterone, androstenedione and dehydroepiandrosterone sulfate levels ([3]; person, 20 mg twice daily, about second month): normal | serum 3-alpha androstanediol glucuronide, estrone, androstenedione, total testosterone, prostate specific antigen, and progesterone levels ([3]; person, 40 mg twice daily for one month): within normal limits | acne lesion remission and clearing [4]: significant improvement | added benefit of higher dose ([5]; 30 mg twice daily from week 4 thru week 8 versus 20 mg twice daily): no added benefit | acne remission during the study ([5]; 15 patients, 20-30 mg twice daily oral, 10 weeks): all participants attained periods of acne remission | time to subjective and objective clinical improvement ([5]; after initiating zafirlukast therapy, routinely, observed as early as two weeks): 3-4 weeks | time to acne reoccurrence in consistently non-compliant patients ([5]; after more than 2-3 doses missed): 2 to 3 days | reduction of perilesional erythema ([5]; by week eight): 80-90% | reduction of perilesional erythema ([5]; by week four): 40-50% | resolution of perilesional erythema ([5]; by week two): 10-15% | reoccurrence of acne form lesions after discontinuation ([5]; discontinuation of therapy over a 5-7 day period): equal to baseline levels | remission in the one patient compliant throughout the entire study ([5]; fully compliant patient): complete remission | side effects ([5]; one participant with acne rosacea, taken on an empty stomach, only participant with side effects, none at 10 mg twice daily): asthenia
